The source of these data is patent US20130052154A1, “Compositions and Methods for the Treatment of Lung Inflammation” (BOARD OF REGENTS OF THE UNIVERSITY OF NEBRASKA, priority 2011, published 2013).

Holding throughout (type): biochemical
For test [1], the target named is T1, catalase (from bovine liver), cleavable DTSSP cross-linked cl-nanozyme with PEG-pLL50, purified (C2p) (Bos taurus, UniProt P00432).
T1 construct: purchased Calbiochem (Gibbstown, N.J.); host or cells: bovine liver
T1 sequence (P00432 2-527 limits assumed): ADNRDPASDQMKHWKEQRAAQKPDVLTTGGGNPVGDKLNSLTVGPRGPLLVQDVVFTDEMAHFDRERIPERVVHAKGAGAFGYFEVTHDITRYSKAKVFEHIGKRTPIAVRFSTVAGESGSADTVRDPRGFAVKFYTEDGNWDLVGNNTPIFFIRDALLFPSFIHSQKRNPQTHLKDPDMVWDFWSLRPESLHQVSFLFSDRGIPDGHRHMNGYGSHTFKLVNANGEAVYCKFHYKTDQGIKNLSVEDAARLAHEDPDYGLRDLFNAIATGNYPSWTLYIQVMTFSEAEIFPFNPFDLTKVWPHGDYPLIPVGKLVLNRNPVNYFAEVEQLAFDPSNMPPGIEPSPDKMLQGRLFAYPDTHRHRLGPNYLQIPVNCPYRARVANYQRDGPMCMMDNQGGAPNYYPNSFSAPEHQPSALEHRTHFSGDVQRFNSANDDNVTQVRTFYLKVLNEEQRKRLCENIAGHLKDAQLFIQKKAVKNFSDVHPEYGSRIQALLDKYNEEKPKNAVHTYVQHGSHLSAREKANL
Put plainly: Catalytic constants of purified DTSSP cross-linked catalase cl-nanozyme (C2p) from effect of H2O2 concentration on rate of H2O2 decomposition. The method, then: (§1) SOD1 (from bovine erythrocytes), hydrogen peroxide (H2O2), 2,3,5-triphenyltetrazolium chloride (TTC) and copper standards for Inductively Coupled Plasma Mass Spectroscopy (ICP-MS)— TraceCERT®, 1000 mg/L Cu in nitric acid) were from Sigma-Aldrich (St. Louis, Mo.). Catalase (from bovine liver) was from Calbiochem (Gibbstown, N.J.). PEG-pLL50 was from Alamanda Polymers™ (Huntsville, Ala.). […] Cross-linkers 3,3′-dithiobis(sulfosuccinimidylpropionate) (DTSSP) and bis(sulfosuccinimidyl)suberate (BS^3) were from Thermo Fisher Scientific (Rockford, Ill.). NAP™ desalting columns and HiPrep 16/60 Sephacryl S-400 HR column were from GE Healthcare (Piscataway, N.J.). Criterion Tris-HCl gels and Precision Plus Protein™ All Blue Standards were from Bio-Rad (Hercules, Calif.). SYPRO® Ruby protein gel stain and cell culture reagents were purchased from Invitrogen (Carlsbad, Calif.). CellTiter 96® AQueous One Solution Cell Proliferation Assay (MTS) was from Promega (Madison, Wis.). LumiMax Superoxide Anion Detection Kit was from Agilent Technologies, Inc. (Santa Clara, Calif.). All other reagents and supplies were from Fisher Scientific (Pittsburgh, Pa.) unless noted otherwise.
Enzyme and polymer stock solutions were prepared in 10 mM HEPES (pH 7.4) and 10 mM HEPES-buffered saline (HBS; pH 7.4) for SOD1 and catalase, respectively. Non-cross-linked BICs (Z+/−=2) were prepared as described (Klyachko et al. (2012) Nanomed. Nanotechnol. Biol. Med., 8:119-129). Targeted degree of cross-linking was defined as the molar ratio between cross-linker (DTSSP/BS^3) and pLL amines Precalculated amount of the respective cross-linker was dissolved in the reaction buffer (HEPES/HBS), quickly added to BICs, and the reaction mixture was briefly vortexed and incubated for 2 hours on ice. Unreacted crosslinker was desalted using NAP™ columns following manufacturer's instructions. Cl-Nanozymes were purified using size exclusion chromatography (SEC) (small/intermediate scale) or centrifugal filtration (large scale). SEC was carried out using an ÄKTA™ Fast Protein Liquid Chromatography (FPLC) (Amersham Biosciences, Piscataway, N.J.) system. DTSSP cl-nanozymes were lyophilized overnight, reconstituted in deionized water (DW), loaded onto a HiPrep 16/60 Sephacryl™ S-400 HR column and eluted using 10 mM HBS (pH 7.4) at a flow rate of 0.5 mL/minute. Prior to each experiment, the column was pre-conditioned with free block copolymer (PEG-pLL50) to minimize non-specific adsorption of the cl-nanozymes (Boeckle et al. (2004) J. Gene Med., 6:1102-1111). […] Protein concentration was determined using Micro BCA™ Protein Assay Kit. […]

For test [2], the target named is T2, catalase (from bovine liver), native (nC) (Bos taurus, UniProt P00432).
T2 construct: purchased Calbiochem (Gibbstown, N.J.); host or cells: bovine liver
T2 sequence (P00432 2-527 limits assumed): T1 sequence (P00432 2-527 limits assumed)
Description: Catalytic constants of native catalase (nC) from effect of H2O2 concentration on rate of H2O2 decomposition. The settings on record: H2O2 0 to 65 mM, catalase 2 μg/mL, 50 mM phosphate buffer pH 7.4, 240 nm, Lineweaver-Burk. The protocol:
as §1

For test [3], the target named is T3, catalase (from bovine liver), cleavable DTSSP cross-linked cl-nanozyme with PEG-pLL50, non-purified (C2) (Bos taurus, UniProt P00432).
T3 construct: purchased Calbiochem (Gibbstown, N.J.); host or cells: bovine liver
T3 sequence (P00432 2-527 limits assumed): T1 sequence (P00432 2-527 limits assumed)
Put plainly: Catalytic constants of DTSSP cross-linked catalase cl-nanozyme (C2) from effect of H2O2 concentration on rate of H2O2 decomposition. The protocol: as §1
Enzyme and polymer stock solutions were prepared in 10 mM HEPES (pH 7.4) and 10 mM HEPES-buffered saline (HBS; pH 7.4) for SOD1 and catalase, respectively. Non-cross-linked BICs (Z+/−=2) were prepared as described (Klyachko et al. (2012) Nanomed. Nanotechnol. Biol. Med., 8:119-129). Targeted degree of cross-linking was defined as the molar ratio between cross-linker (DTSSP/BS^3) and pLL amines Precalculated amount of the respective cross-linker was dissolved in the reaction buffer (HEPES/HBS), quickly added to BICs, and the reaction mixture was briefly vortexed and incubated for 2 hours on ice. Unreacted crosslinker was desalted using NAP™ columns following manufacturer's instructions. Cl-Nanozymes were purified using size exclusion chromatography (SEC) (small/intermediate scale) or centrifugal filtration (large scale). […] Protein concentration was determined using Micro BCA™ Protein Assay Kit. […]

Where [4] appears, read: H2O2 0 to 65 mM, catalase 2 μg/mL, 50 mM phosphate buffer pH 7.4, 240 nm, Lineweaver-Burk, purified cl-nanozyme C2p.
Where [5] appears, read: H2O2 0 to 65 mM, catalase 2 μg/mL, 50 mM phosphate buffer pH 7.4, 240 nm, Lineweaver-Burk, non-purified cl-nanozyme C2.

As for `OO` [H2O2, hydrogen peroxide], the “kcat/Km lower than nC” value in test [1] (C2p compared to native catalase (nC)) was “ca. 48%”. Besides, in test [1] (C2p compared to non-purified cl-nanozyme (C2)), the “kcat/Km lower than C2” value was roughly 53%. Moreover, the results for the Km in test [1] (setting [4]), in test [2] and in test [3] (setting [5]) were 93.2 mM, 53.2 mM and 94.1 mM, respectively. Moreover, the kcat (usually the maximal rate divided by the concentration of active sites) was 722000 s⁻¹ in test [1] (setting [4]), 798000 s⁻¹ in test [2] and 1.56e+06 s⁻¹ in test [3] (setting [5]). The “increase in Km value” in test [3] (C2 compared to native catalase (nC)) is listed as “ca. 1.8 fold”.
